Where “and” joins values, the source holds several entries; their conditions need not be identical. Equal values may be shown once.
What was measured:
Experiment in all cases: Reaction Biology kinase activity inhibition
Type in all cases: biochemical
CAMK1d = target: T1, CAMK1d (Homo sapiens, UniProt Q8IU85); details: initial screening
T1 construct: purchased Reaction Biology
Excerpt: (§1) The second screening was the Reaction Biology® (Malvern, PA) kinase activity inhibition tests, which screened for more than 600 protein kinases and lipid kinases, using miniaturized radioisotope-based assay platform with γ-^33P-ATP, followed by confirmation with IC50 kinase profiling service with 5 concentrations of test compound (i.e., DOH and DA) with curve fitting.

FGR = target: T2, FGR (Homo sapiens, UniProt P09769); details: initial screening
T2 construct: purchased Reaction Biology
T2 sequence (P09769 whole entry): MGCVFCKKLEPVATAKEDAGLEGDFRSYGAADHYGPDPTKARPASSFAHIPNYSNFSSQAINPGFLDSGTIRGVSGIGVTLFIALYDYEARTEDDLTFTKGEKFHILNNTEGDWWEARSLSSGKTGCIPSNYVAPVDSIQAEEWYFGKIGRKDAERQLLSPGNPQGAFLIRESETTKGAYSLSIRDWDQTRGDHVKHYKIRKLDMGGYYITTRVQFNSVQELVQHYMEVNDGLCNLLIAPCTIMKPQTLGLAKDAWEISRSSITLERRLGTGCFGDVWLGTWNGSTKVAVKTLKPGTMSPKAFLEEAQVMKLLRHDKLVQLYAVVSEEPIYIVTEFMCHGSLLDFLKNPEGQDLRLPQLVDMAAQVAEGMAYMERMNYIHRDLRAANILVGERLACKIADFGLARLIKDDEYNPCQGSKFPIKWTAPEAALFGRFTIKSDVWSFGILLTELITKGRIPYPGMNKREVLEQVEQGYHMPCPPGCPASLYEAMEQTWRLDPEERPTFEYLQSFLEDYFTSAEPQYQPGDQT
Excerpt: as §1

ARK5/NUAK1 = target: T3, ARK5/NUAK1 (Homo sapiens, UniProt O60285); details: initial screening
T3 construct: purchased Reaction Biology
T3 sequence (O60285 1-661): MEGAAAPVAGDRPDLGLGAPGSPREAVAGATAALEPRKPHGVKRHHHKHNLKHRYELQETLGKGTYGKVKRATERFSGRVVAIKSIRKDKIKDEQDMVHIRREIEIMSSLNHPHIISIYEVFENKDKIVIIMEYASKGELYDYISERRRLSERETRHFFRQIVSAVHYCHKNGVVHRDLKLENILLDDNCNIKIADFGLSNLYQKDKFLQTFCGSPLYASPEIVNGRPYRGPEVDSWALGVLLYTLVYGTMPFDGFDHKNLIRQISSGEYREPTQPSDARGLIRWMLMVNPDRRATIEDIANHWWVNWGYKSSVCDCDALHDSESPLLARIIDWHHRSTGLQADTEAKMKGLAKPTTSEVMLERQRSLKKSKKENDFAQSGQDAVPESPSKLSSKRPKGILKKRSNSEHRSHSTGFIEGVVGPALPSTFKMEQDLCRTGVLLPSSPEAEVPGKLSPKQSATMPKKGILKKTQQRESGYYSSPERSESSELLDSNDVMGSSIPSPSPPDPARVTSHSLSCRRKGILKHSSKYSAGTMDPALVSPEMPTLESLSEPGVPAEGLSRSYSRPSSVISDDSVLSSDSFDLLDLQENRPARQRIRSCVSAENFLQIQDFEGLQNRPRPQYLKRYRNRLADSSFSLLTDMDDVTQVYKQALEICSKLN
Excerpt: as §1

STK21/CIT = target: T4, STK21/CIT (Homo sapiens, UniProt O14578); details: initial screening
T4 construct: purchased Reaction Biology
T4 sequence (O14578 whole entry): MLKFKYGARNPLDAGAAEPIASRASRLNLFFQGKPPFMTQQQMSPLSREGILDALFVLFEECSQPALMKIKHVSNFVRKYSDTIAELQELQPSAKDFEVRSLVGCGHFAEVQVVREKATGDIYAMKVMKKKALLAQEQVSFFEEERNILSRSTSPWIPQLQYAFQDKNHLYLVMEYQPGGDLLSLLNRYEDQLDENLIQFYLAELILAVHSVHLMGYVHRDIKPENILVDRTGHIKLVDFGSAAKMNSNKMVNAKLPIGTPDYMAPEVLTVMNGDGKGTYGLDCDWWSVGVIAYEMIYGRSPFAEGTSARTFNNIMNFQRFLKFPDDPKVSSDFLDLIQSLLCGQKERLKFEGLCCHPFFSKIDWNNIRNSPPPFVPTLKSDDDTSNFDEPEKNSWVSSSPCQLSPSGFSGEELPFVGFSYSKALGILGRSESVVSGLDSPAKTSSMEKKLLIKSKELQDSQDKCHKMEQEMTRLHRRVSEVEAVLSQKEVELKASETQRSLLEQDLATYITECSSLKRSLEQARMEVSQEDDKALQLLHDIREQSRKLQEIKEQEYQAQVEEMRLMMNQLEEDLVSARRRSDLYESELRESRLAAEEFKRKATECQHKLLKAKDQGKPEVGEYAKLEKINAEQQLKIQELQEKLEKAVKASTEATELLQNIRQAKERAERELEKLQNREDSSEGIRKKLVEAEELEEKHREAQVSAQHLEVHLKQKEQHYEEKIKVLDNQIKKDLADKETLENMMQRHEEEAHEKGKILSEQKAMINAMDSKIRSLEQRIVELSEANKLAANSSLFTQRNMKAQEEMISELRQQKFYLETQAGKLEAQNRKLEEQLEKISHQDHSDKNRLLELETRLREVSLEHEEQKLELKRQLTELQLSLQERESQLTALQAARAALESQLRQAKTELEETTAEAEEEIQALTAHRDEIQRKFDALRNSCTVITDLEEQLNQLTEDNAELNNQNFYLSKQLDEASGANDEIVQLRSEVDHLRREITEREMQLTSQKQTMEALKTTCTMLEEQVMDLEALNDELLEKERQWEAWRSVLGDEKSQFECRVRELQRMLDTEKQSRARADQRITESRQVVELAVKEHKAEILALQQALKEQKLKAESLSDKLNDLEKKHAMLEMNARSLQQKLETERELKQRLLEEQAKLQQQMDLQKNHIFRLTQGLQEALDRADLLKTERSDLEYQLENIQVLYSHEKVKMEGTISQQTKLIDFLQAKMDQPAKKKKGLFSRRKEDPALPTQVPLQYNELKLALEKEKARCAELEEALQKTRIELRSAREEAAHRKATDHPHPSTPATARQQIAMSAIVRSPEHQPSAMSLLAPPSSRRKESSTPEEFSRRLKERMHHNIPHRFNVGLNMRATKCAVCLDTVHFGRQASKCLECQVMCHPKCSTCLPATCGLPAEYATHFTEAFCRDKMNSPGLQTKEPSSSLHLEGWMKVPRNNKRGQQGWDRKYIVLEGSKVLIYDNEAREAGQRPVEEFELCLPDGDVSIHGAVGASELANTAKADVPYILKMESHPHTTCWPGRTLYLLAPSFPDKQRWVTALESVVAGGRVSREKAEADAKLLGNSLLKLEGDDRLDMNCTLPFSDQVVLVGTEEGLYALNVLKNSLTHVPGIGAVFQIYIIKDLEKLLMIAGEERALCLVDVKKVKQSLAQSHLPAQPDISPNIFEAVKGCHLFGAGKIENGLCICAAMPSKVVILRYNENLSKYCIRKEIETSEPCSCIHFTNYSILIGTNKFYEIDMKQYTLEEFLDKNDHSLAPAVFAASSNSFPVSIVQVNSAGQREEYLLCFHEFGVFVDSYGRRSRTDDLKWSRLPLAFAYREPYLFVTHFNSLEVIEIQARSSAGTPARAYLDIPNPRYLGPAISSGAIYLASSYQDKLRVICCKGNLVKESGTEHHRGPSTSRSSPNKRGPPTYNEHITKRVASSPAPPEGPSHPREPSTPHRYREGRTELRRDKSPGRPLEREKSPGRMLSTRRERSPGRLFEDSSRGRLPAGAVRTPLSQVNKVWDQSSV
Excerpt: as §1

BRSK1 = target: T5, BRSK1 (Homo sapiens, UniProt Q8TDC3); details: initial screening
T5 construct: purchased Reaction Biology
T5 sequence (Q8TDC3 1-778): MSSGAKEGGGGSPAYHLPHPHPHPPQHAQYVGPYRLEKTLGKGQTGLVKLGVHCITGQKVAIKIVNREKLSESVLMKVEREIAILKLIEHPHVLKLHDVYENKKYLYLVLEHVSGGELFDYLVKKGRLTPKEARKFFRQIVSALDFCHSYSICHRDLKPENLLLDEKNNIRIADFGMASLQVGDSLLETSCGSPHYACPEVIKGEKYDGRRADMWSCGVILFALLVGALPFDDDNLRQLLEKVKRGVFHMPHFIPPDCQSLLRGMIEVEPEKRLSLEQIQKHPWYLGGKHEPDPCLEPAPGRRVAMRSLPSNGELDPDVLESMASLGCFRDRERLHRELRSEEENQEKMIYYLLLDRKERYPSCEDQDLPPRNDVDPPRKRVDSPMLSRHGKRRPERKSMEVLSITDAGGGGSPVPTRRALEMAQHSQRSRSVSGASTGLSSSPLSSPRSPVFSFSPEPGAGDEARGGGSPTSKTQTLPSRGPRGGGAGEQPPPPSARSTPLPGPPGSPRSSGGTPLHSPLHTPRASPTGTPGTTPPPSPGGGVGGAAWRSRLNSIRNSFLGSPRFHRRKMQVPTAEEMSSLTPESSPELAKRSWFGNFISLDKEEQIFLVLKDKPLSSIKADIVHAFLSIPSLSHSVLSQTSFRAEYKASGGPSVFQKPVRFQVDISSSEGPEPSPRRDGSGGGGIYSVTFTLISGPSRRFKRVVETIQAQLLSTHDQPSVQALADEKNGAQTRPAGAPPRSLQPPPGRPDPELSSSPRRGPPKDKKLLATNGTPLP
Excerpt: as §1

LKB1 = target: T6, LKB1 (Homo sapiens, UniProt Q15831); details: activity screening, DOH at 50 μM
T6 construct: purchased Reaction Biology (Malvern, PA)
Excerpt: as §1

PKN1-TECR (Tex1Pex10) = details: initial screening
Excerpt: as §1

IRAK1 = target: T7, IRAK1 (Homo sapiens, UniProt P51617); details: initial screening
T7 construct: purchased Reaction Biology
Excerpt: as §1

STK32B/YANK2 = target: T8, STK32B/YANK2 (Homo sapiens, UniProt Q9NY57); details: initial screening
T8 construct: purchased Reaction Biology
Excerpt: as §1

CDK7/cyclin H = target: T9, CDK7/cyclin H (Homo sapiens, UniProt P50613); details: initial screening
T9 construct: purchased Reaction Biology
T9 sequence (P50613 whole entry): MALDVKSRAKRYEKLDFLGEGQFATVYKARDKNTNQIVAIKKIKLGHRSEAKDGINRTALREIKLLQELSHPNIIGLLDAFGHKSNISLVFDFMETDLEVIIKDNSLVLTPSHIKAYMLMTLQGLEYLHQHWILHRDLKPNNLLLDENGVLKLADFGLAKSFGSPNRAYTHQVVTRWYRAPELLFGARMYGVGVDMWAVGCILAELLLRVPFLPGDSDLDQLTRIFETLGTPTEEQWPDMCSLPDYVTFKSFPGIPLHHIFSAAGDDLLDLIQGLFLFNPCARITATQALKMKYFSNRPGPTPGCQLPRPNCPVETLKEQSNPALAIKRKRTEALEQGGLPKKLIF
T9 sequence (P51946 whole entry partner): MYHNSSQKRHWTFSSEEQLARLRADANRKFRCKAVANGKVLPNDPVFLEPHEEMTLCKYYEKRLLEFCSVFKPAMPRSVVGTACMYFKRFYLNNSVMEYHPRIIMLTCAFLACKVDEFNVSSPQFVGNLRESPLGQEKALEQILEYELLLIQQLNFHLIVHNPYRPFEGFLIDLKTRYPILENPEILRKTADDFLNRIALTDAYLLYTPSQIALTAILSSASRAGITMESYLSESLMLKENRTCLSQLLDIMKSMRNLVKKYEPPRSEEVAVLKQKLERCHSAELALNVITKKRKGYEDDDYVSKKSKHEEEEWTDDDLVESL
T9 sequence (P51948 whole entry partner): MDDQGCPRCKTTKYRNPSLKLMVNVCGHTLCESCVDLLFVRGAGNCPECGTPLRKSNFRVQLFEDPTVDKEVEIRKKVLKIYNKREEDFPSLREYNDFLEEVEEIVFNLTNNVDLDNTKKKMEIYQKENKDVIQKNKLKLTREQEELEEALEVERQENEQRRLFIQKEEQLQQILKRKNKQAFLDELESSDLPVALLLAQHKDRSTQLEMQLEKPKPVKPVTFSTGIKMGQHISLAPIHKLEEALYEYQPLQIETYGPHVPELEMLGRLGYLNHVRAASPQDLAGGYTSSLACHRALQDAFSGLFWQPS
Excerpt: as §1

PIM1 = target: T10, PIM1 (Homo sapiens, UniProt P11309); details: initial screening
T10 construct: purchased Reaction Biology
T10 sequence (P11309 whole entry): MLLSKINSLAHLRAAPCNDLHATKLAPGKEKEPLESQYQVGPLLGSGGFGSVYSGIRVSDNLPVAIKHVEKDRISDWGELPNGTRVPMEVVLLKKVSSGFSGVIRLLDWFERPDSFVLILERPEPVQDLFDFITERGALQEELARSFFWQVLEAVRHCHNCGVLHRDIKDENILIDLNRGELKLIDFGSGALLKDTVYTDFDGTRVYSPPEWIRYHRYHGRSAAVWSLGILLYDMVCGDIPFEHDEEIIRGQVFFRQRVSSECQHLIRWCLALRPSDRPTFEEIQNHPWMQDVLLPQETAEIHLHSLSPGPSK
Excerpt: as §1

PKCtheta = target: T11, PKCtheta (Homo sapiens, UniProt Q04759); details: initial screening
T11 construct: purchased Reaction Biology
T11 sequence (Q04759 whole entry): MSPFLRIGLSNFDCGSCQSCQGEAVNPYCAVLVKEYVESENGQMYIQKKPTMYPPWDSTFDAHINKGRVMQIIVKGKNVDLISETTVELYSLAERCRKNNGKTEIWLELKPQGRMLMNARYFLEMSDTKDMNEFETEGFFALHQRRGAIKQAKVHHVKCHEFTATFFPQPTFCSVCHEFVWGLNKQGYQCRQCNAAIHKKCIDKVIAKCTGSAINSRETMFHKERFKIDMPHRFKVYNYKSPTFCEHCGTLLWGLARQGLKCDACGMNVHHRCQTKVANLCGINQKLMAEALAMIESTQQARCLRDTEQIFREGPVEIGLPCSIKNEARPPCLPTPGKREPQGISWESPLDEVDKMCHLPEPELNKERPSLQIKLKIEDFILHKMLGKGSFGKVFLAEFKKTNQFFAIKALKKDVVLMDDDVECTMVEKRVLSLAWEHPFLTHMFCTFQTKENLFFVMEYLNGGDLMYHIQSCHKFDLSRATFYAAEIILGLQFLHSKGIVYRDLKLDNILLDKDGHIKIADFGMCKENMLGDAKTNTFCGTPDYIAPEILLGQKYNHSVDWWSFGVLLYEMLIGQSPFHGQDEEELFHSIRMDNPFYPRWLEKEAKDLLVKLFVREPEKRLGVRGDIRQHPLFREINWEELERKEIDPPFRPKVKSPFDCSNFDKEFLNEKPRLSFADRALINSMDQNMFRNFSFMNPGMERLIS
Excerpt: as §1

[1] = DOH (50 µM), Data 1 and Data 2, read-out: % Enzyme Activity (relative to DMSO controls)

T1 sequence (Q8IU85 whole entry): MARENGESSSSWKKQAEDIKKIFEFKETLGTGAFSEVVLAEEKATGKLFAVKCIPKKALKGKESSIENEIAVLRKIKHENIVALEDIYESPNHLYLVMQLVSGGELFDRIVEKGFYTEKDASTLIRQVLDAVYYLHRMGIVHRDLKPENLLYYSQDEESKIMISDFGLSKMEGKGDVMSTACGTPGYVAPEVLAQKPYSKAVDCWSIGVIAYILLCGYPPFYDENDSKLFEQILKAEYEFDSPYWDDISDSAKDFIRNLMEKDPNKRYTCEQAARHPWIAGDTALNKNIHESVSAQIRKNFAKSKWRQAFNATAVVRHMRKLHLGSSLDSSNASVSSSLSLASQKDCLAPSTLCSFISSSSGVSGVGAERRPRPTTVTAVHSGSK

CC1(C)Oc2cc3oc(=O)ccc3cc2C[C@@H]1O [DOH, decursinol]
inhibition at 50 µM (CAMK1d; DOH 50 µM): 27.1% | % Enzyme Activity (relative to DMSO controls) (CAMK1d; DOH (50 µM), Data 1 and Data 2): 70.6% | remaining activity at 50 µM (CAMK1d; [1]): 75.3% | inhibition at 50 µM (FGR; DOH 50 µM): 34.8% | % Enzyme Activity (relative to DMSO controls) (FGR; DOH (50 µM), Data 1 and Data 2): 64.8% | remaining activity at 50 µM (FGR; [1]): 65.6% | inhibition at 50 µM (ARK5/NUAK1; DOH 50 µM): 27.4% | % Enzyme Activity (relative to DMSO controls) (ARK5/NUAK1; DOH (50 µM), Data 1 and Data 2): 72.5% | remaining activity at 50 µM (ARK5/NUAK1; [1]): 72.6% | inhibition at 50 µM (STK21/CIT; DOH 50 µM): 28.3% | % Enzyme Activity (relative to DMSO controls) (STK21/CIT; DOH (50 µM), Data 1 and Data 2): 71.1% | remaining activity at 50 µM (STK21/CIT; [1]): 72.2% | inhibition at 50 µM (BRSK1; DOH 50 µM): 29.7% | % Enzyme Activity (relative to DMSO controls) (BRSK1; DOH (50 µM), Data 1 and Data 2): 69.5% | remaining activity at 50 µM (BRSK1; [1]): 71.1% | inhibition of kinase activity (LKB1): no inhibition | DOH % Inhibition (PKN1-TECR (Tex1Pex10); DOH 50 µM): 27.6% | % Enzyme Activity (relative to DMSO controls) (PKN1-TECR (Tex1Pex10); DOH (50 µM), Data 1 and Data 2): 72.6% and 72.4% | inhibition at 50 µM (IRAK1; DOH 50 µM): 38.5% | % Enzyme Activity (relative to DMSO controls) (IRAK1; DOH (50 µM), Data 1 and Data 2): 58.4% | remaining activity at 50 µM (IRAK1; [1]): 64.5% | inhibition at 50 µM (STK32B/YANK2; DOH 50 µM): 31.1% | % Enzyme Activity (relative to DMSO controls) (STK32B/YANK2; DOH (50 µM), Data 1 and Data 2): 67.4% | remaining activity at 50 µM (STK32B/YANK2; [1]): 70.3% | inhibition at 50 µM (CDK7/cyclin H; DOH 50 µM): 25.7% | % Enzyme Activity (relative to DMSO controls) (CDK7/cyclin H; DOH (50 µM), Data 1 and Data 2): 73.9% | remaining activity at 50 µM (CDK7/cyclin H; [1]): 74.8% | inhibition at 50 µM (PIM1; DOH 50 µM): 38.5% | % Enzyme Activity (relative to DMSO controls) (PIM1; DOH (50 µM), Data 1 and Data 2): 60.3% | remaining activity at 50 µM (PIM1; [1]): 62.7% | inhibition at 50 µM (PKCtheta; DOH 50 µM): 30.1% | % Enzyme Activity (relative to DMSO controls) (PKCtheta; DOH (50 µM), Data 1 and Data 2): 69.2% | remaining activity at 50 µM (PKCtheta; [1]): 70.5%

Source: PMC11785709, “Angelica gigas Nakai (Korean Dang-gui) Root Alcoholic Extracts in Health Promotion and Disease Therapy – active Phytochemicals and In Vivo Molecular Targets” (Pharmaceutical Research, 2025)
